Source: patent US12448369B2 (Edgewise Therapeutics, Inc., priority 2023, dated 2025)

Legend:
[1] = tested on: Rabbit Psoas myofibrils (skeletal myosin ATPase); assay: Myofibril ATPase assay, rabbit psoas (skeletal) myofibrils; assay type: biochemical; settings: rabbit psoas myofibrils
Outline: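 Readout: A340 decline from NADH oxidation, PK/LDH-coupled to ADP release; kinetic reads over 75 min. Buffer: pCa (PIPES, CaCl2, EGTA), pH 7.0. Linear-regression slopes vs vehicle, 4PL fit; reported as concentration giving 75% (Y75) or 125% (Y125) of vehicle activity.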

[2] = tested on: Porcine atria myofibrils (atrial myosin ATPase); assay: Myofibril ATPase assay, porcine atria myofibrils; assay type: biochemical; settings: porcine atria myofibrils
Outline: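 Coupled PK-LDH readout, NADH loss at 340 nm, kinetic 75 min. Porcine atria myofibrils, pCa buffer (PIPES/CaCl2/EGTA, pH 7.0). Slopes (mAU/min) normalized to vehicle = 100%, 4-parameter fit; Y75 or Y125 reported.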

[3] = molecular target: T1, Porcine ventricle myofibrils (ventricular myosin ATPase) (Sus scrofa, UniProt P79293); assay: Myofibril ATPase assay, porcine ventricle myofibrils; assay type: biochemical, porcine (Yucatan minipigs); settings: porcine ventricle myofibrils
T1 construct: Myofibrils from porcine cardiac muscle was isolated from the left ventricle of Yucatan minipigs; tissue Exemplar Genetics; host or cells: left ventricle of Yucatan minipigs, myofibrils prepared in house
Outline: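 Test compounds acted on myofibrils isolated from the left ventricle of Yucatan minipigs. ADP formation was coupled via pyruvate kinase/lactate dehydrogenase to NADH oxidation, monitored kinetically at 340 nm over 75 min. Rates relative to vehicle were fitted with a 4-parameter logistic model, reported as Y75 (25% inhibition) or Y125 (activation) concentrations.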

[4] = Y75 value (75% activity relative to no compound)
[5] = ‡ Y125 value, not a Y75 value (125% activity relative to no compound)

T1 sequence (P79293 whole entry): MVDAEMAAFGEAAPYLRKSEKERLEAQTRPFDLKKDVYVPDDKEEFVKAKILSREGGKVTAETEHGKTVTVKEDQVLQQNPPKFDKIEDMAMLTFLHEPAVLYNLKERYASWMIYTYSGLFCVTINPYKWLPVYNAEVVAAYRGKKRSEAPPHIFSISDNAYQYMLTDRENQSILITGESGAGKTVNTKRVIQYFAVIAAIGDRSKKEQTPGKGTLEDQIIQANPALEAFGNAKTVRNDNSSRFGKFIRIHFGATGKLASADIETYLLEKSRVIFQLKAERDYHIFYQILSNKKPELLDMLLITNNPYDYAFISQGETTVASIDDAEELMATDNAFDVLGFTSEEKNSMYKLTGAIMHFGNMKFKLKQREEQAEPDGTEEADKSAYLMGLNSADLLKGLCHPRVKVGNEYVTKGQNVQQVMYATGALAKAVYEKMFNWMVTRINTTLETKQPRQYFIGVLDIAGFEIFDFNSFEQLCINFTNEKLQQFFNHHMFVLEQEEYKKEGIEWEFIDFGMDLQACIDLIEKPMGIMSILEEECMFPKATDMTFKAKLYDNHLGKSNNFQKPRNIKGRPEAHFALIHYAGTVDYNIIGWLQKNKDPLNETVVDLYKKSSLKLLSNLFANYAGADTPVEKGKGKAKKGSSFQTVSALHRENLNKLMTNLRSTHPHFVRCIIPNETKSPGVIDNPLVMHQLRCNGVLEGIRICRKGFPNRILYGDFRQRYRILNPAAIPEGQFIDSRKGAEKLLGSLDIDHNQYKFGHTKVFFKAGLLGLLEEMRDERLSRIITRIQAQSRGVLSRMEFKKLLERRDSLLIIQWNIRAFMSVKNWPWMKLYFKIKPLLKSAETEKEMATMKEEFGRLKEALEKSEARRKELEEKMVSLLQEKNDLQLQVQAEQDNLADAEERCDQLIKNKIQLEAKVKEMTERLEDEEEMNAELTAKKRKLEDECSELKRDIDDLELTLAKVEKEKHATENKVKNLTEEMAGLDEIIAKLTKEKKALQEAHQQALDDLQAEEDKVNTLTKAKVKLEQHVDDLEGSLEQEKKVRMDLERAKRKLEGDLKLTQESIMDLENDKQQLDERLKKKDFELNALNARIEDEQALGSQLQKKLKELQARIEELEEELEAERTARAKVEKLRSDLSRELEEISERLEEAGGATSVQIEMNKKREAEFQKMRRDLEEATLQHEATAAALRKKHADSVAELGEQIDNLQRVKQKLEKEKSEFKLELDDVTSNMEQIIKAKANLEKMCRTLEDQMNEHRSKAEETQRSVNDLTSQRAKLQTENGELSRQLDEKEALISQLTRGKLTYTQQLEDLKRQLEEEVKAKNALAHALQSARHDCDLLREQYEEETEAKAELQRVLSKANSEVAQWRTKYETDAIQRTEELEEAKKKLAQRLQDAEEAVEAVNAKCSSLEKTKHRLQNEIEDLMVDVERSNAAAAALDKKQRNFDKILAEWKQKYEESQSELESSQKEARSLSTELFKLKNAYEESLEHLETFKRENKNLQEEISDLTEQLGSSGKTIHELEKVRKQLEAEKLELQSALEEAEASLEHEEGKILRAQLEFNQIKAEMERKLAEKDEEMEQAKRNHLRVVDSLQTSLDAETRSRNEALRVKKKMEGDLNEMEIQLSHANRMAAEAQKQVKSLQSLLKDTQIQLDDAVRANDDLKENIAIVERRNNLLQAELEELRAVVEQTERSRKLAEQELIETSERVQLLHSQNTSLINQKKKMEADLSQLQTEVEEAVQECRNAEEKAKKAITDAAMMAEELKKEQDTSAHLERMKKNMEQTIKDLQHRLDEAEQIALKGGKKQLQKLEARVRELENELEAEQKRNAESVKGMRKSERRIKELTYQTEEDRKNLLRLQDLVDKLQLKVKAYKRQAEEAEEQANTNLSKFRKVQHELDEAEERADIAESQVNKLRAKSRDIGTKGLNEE

SMILES | Skeletal EC25 ([1]; Y75 value (no ‡ mark)) | Atrial EC25 ([2]; Y75 value (no ‡ mark)) | Ventricular EC25 ([3]; Y75 value (no ‡ mark)) | Skeletal EC25 ([1]; Y75 value) | Atrial EC25 [2, 4] | Ventricular EC25 ([3]; Y75 value) | Skeletal EC25 [1, 5] | Ventricular EC25 [3, 5]
Cc1c(CC(=O)N[C@@H](C)c2ncc(C#N)cn2)c(=O)[nH]c2ccc(F)c(Cl)c12 (single isomer, unassigned) [compound 2056] | 0.06 µM | 110 nM | 0.29 µM |  |  |  |  | 
COc1ncc2[nH]c(=O)c(CC(=O)N[C@@H](C)c3ccc(F)cc3F)cc2n1 [compound 497] |  |  |  | 100 µM | 73300 nM | 100 µM |  | 
C[C@H](NC(=O)Cc1cc2c(F)cccc2[nH]c1=O)c1ccc(C#N)cn1 [compound 48] | 0.23 µM | 1550 nM | 4.14 µM |  |  |  |  | 
C[C@@H](NC(=O)Cc1c(C2CC2)c2cc(F)ccc2[nH]c1=O)c1ncc(C#N)cn1 (single isomer, unassigned) [compound 2063] | 0.50 µM | 210 nM | 100.00 µM |  |  |  |  | 
Cc1c(CC(=O)N[C@@H]2COCc3cc(C#N)cnc32)c(=O)[nH]c2ccc(F)cc12 [compound 1056] | 100 µM | 100000 nM | 100.00 µM |  |  |  |  | 
Cc1c(CC(=O)N[C@H](C)c2ccc(F)cc2F)c(=O)[nH]c2ccnc(C#N)c12 [compound 269] |  |  |  | 2.47 µM | 100000 nM | 34.76 µM |  | 
Cc1nc(C#N)cnc1[C@H](C)NC(=O)C1(c2cc3c(F)c(F)ccc3[nH]c2=O)CC1 (single isomer, unassigned) [compound 4826] | 1.00 µM | 670 nM | 10.09 µM |  |  |  |  | 
C[C@@H](NC(=O)Cc1cc2c(C#N)nccc2[nH]c1=O)c1ccc(F)cn1 [compound 474] |  |  |  | 15.42 µM | 100000 nM | 100.00 µM |  | 
Cc1c(CC(=O)N[C@@H](C)c2ccc(F)cc2F)c(=O)[nH]c2cnnc(O)c12 [compound 240] |  |  |  | 100.00 µM | 100000 nM | 100.00 µM |  | 
Cc1c(CC(=O)N[C@@H](C)c2ncc(F)cc2F)c(=O)[nH]c2ccc(F)c(C(F)(F)F)c12 [compound 10] | 0.05 µM | 160 nM | 0.39 µM |  |  |  |  | 
C[C@H](NC(=O)C1(c2cc3c(F)c(F)ccc3[nH]c2=O)CC1)c1ncc(C#N)cn1 (single isomer, unassigned) [compound 2550] | 1.22 µM | 1390 nM | 77.93 µM |  |  |  |  | 
Cc1c(CC(=O)N[C@@H](C)c2ccc(F)cc2F)c(=O)[nH]c2ccc(C(F)(F)F)nc12 [compound 393] |  |  |  | 0.02 µM | 2460 nM | 0.42 µM |  | 
C[C@H](NC(=O)[C@@H](C)c1cc2c(F)nccc2[nH]c1=O)c1ccc(F)cc1F (single isomer, unassigned) [compound 367] |  |  |  | 0.29 µM | 2230 nM | 36.08 µM |  | 
Cc1c(CC(=O)N[C@@H](C)c2ccc(F)cc2F)c(=O)[nH]c2ccnc(N3CCCC3)c12 [compound 346] |  |  |  | 2.37 µM | 100000 nM | 100.00 µM |  | 
Cc1ccncc1[C@H](C)NC(=O)Cc1c(C)c2cc(F)ccc2[nH]c1=O [compound 1049] | 29 µM | 100000 nM | 100.00 µM |  |  |  |  | 
Cc1cc(F)cc(F)c1[C@@H](C)NC(=O)Cc1c(C)c2c(C)nccc2[nH]c1=O (single isomer, unassigned) [compound 404] |  |  |  | 0.35 µM | 100000 nM | 42.84 µM |  | 

SMILES | Skeletal EC25 ([1]; Y75 value (no ‡ mark)) | Atrial EC25 ([2]; Y75 value (no ‡ mark)) | Ventricular EC25 ([3]; Y75 value (no ‡ mark)) | Skeletal EC25 ([1]; Y75 value) | Atrial EC25 [2, 4] | Ventricular EC25 ([3]; Y75 value) | Skeletal EC25 [1, 5] | Ventricular EC25 [3, 5]
C[C@H](NC(=O)[C@@H](C)c1c(C(F)(F)F)c2c(F)cccc2[nH]c1=O)c1ccc(F)cc1F (single isomer, unassigned) [compound 97] | 0.23 µM | 190 nM | 5.34 µM |  |  |  |  | 
C[C@H](NC(=O)Cc1c(C2CC2)c2c(F)c(F)ccc2[nH]c1=O)c1ccc(C#N)cn1 [compound 26] | 0.21 µM | 6130 nM | 1.40 µM |  |  |  |  | 
Cc1nccc2[nH]c(=O)c([C@H](C)C(=O)N[C@@H](C)c3ccc(C#N)cc3F)c(C)c12 (single isomer, unassigned) [compound 196] |  |  |  | 0.18 µM | 110 nM | 4.23 µM |  | 
Cc1cc(C#N)nnc1[C@H](C)NC(=O)Cc1c(C)c2c(F)c(F)ccc2[nH]c1=O [compound 1136] | 0.05 µM | 140 nM | 0.12 µM |  |  |  |  | 
COc1nccc2[nH]c(=O)c(CC(=O)N[C@@H](C)c3ccc(F)cc3F)c(C)c12 [compound 385] |  |  |  | 0.03 µM | 60 nM | 0.33 µM |  | 
Cc1c(CC(=O)N[C@H](C)c2ncc(C3COC3)cn2)c(=O)[nH]c2ccc(F)c(F)c12 (single isomer, unassigned) [compound 2043] | 7.03 µM | 1010 nM | 4.16 µM |  |  |  |  | 
Cc1c(CC(=O)N[C@@H](C)c2ccc(F)cc2F)c(=O)[nH]c2ccnc(OCC(C)(C)F)c12 [compound 372] |  |  |  | 1.61 µM | 100000 nM | 100.00 µM |  | 
C[C@@H](NC(=O)Cc1cc2cc(F)c(F)cc2[nH]c1=O)c1ncc(C#N)cc1F (single isomer, unassigned) [compound 3] | 2.33 µM | 3400 nM | 0.31 µM |  |  |  |  | 
Cc1c(CC(=O)N[C@@H](C)c2ccc(C#N)cn2)c(=O)[nH]c2cc(F)c(F)cc12 [compound 1113] | 0.47 µM | 970 nM | 2.55 µM |  |  |  |  | 
C[C@H](NC(=O)Cc1c(C(F)(F)F)c2c(C3CC3)nccc2[nH]c1=O)c1ccc(F)cc1F [compound 421] |  |  |  | 0.20 µM | 100000 nM | 100.00 µM |  | 
O=C(Cc1cc2c(F)c(F)ccc2[nH]c1=O)N1CC2CC1c1ccccc12 (stereo not drawn) [compound 4504] | 0.30 µM | 920 nM | 0.47 µM |  |  |  |  | 
Cc1nccc2[nH]c(=O)c(CC(=O)N[C@H]3CCc4cc(F)cc(F)c43)c(C)c12 [compound 406] |  |  |  | 0.02 µM | 100 nM | 0.38 µM |  | 
C[C@H](NC(=O)Cc1c(C2CC2)c2cc(F)ccc2[nH]c1=O)c1ccc(C#N)nn1 (single isomer, unassigned) [compound 2054] | 0.15 µM | 230 nM | 3.72 µM |  |  |  |  | 
Cc1nccc2[nH]c(=O)c(CC(=O)N[C@@H]3COc4cc(F)cc(F)c43)c(C)c12 (single isomer, unassigned) [compound 288] |  |  |  | 0.02 µM | 80 nM | 0.27 µM |  | 
Cc1c(C(F)(F)C(=O)N[C@@H](C)c2cccc(C#N)n2)c(=O)[nH]c2ccc(F)cc12 (single isomer, unassigned) [compound 2566] |  | 100000 nM |  |  |  |  | 100.00‡ μM | 100.00‡ μM
Cc1cc([C@@H](C)NC(=O)Cc2c(C)c3cc(F)ccc3[nH]c2=O)ncc1F [compound 1060] | 100.00 µM | 13110 nM | 100.00 µM |  |  |  |  | 
